Consider one molecule from US20130059907A1, “WOGONIN-CONTAINING PHARMACEUTICAL COMPOSITION FOR INHIBITING CANCER STEM CELLS GROWTH AND APPLICATION THEREOF” (National Taiwan Normal University, priority 2011, published 2013).

Experiment [1] relates to A549 cells. The experiment is described as follows: MTT assay (cell proliferation), A549. Format: cell-based. Particulars: FIG. 1B. As to the method:
NSCLC cell lines A549, NCI-H460, NCI-H520 and normal lung cell line MRCS were obtained from Bioresource Collection and Research Center (BCRC, Taiwan). A549 cell line was cultured with F12K medium (21127, GIBCO, Carlsbad, U.S.A.). Both NCI-H460 and NCI-H520 cell lines were cultured with RPMI1640 medium (23400, GIBCO, Carlsbad, U.S.A.). MRCS cell line was cultured with MEM medium (41500, GIBCO, Carlsbad, U.S.A.). All media mentioned above contained 10% FBS (10437, GIBCO, Carlsbad, U.S.A.). All cultures were maintained in an incubator (Thermo forma 370, Waltham, U.S.A.) with 5% CO2 at 37° C.
Cells were seeded at 1×10^4 cells per well in a 24-well plate for 16 hours. After that, a sample such as the wogonin solutions with different concentrations and the extract of S. baicalensis (denoted as “SB”) was added into 24-well plate directly, and cultured at 37° C. for 24, 48, and 72 hours, respectively.
Thiazolyl blue tetrazolium bromide (MTT, m5655, Sigma, St. Louis, U.S.A.) solution was prepared in a concentration of 5.5 mg/ml with phosphate buffered saline (PBS) filtered by 0.22 μm membrane. The MTT solution (50 μl) was added to the wells of 24-well plates with A549, NCI-H460, NCI-H520, and MRCS cell lines cultured after 24, 48, and 72 hours. The plates were incubated at 37° C. for 2 hours and then moved out. The media of the wells were removed. […]

Experiment [2] deals with A549 cells. As to the kind of experiment: Side population analysis (Hoechst33342, with or without reserpine). Format: cell-based. The conditions noted are these: A549, dose of IC50, 48 hours, FIGS. 5A and 5B. As to the method:
A549 cells were seeded in the number of about 3×10^5 in 10 cm dish to give adequate number of cells for analysis. The cells were treated with the extract of S. baicalensis and the wogonin solution in the dose of IC50 for 48 hours. Then, the treated cells were harvested by typsinization and centrifugation. The harvested cells were re-suspended in the number of 1×10^6 cells/ml in culture medium containing 2% FBS, Hoechst33342 dye (5 μg/ml, Invitrogen, Carlsbad, U.S.A.) was added with or without reserpine (50 μM, Sigma, St. Louis, U.S.A.) as a blocking reagent. The cells were further incubated at 37° C. for 2 hours under frequently gentle vortex to ensure uniform staining, and then washed with PBS. PI staining (20 ng/ml) was used to determine the live/dead cells. In order to set up the fluorescence compensation, single staining and non-staining groups were prepared. The cell samples were filtered with nylon mesh (35 μm) to prevent cell aggregation. PI-positive dead cells were primary excluded to avoid false positive signals. Then, the Hoechst blue and red dot plotting was used to determine the side population. A gate of a side population was defined by the diminishing region of two samples groups, i.e. with or without reserpine. The percentages of the side population were further analyzed by Flowjo software (TreeStar, Ashland, U.S.A.).

Structures are written as SMILES.

On to `COc1c(O)cc(O)c2c(=O)cc(-c3ccccc3)oc12` [wogonin solution, wogonin hydrate], for which, in experiment [1] (A549, 40, 80, 120, and 160 μM, 48 hours), the “inhibition of A549 cell line (concentration dependence)” value was “increased as the concentration of the wogonin solution increases”. The IC50 in experiment [1] (Homo sapiens, A549, 48 hours, read-out: half maximal inhibitory concentration (IC50)) is around 85 µM. In addition, the “side population (SP)” value in experiment [2] is “significantly diminished”.
